Like-named read-outs stand apart in the source and are kept apart here. One block for each molecule: values may come before it.
What was measured:
[1] = system: LTB4 (5-LOX pathway) in HT-29 cells; assay: Competitive ELISA for LTB4 in HT-29 cells; type: cell-based; details: Homo sapiens, 3 μg/mL, 48 hrs, read-out: inhibition of LTB4 production in HT-29 cells
Procedure: A Soliprin™ formulation (80:20) was prepared as described in Example 9. (See also Example 14 of U.S. patent application Ser. […] The sample was titrated in tissue culture media containing THP-1 or HT-29 cells; monocyte cell lines that express COX-1, COX-2 and 5-LOX. A competitive ELISA for Leukotriene B4 (LTB4; Neogen, Inc., Cat #406110) was used to assess the effect of this Soliprin™ formulation on newly synthesized levels of LTB4 present in each cell line as a measure Soliprin™'s inhibitory effect on the 5-LOX pathway. The assay was performed in duplicate by adding 160,000 to 180,000 cells per well in 6-well plates. […] Each treated cell line was then harvested by centrifugation and disrupted by gentle dounce homogenization lysis in physiological buffers.

[2] = system: cox-2 gene transcription in human colon cancer DLD-1 cells; details: Mutoh et al. (2000), read-out: IC50 suppression of cox-2 gene transcription; cited from earlier work
[3] = system: prostaglandin endoperoxide synthase; details: Kalkbrenner et al. (1992); cited from earlier work
COX-1 = details: cited from earlier work
[4] = system: carrageenin-induced mouse paw edema; details: oral administration, 100 mg/kg; Min et al. (1999); cited from earlier work
recombinant ovine COX-1 = target: T1, recombinant ovine COX-1 (Ovis aries, UniProt P05979); assay: Inhibition of COX-1 peroxidase activity, TMPD assay (Example 3); type: biochemical
T1 sequence (P05979 25-600): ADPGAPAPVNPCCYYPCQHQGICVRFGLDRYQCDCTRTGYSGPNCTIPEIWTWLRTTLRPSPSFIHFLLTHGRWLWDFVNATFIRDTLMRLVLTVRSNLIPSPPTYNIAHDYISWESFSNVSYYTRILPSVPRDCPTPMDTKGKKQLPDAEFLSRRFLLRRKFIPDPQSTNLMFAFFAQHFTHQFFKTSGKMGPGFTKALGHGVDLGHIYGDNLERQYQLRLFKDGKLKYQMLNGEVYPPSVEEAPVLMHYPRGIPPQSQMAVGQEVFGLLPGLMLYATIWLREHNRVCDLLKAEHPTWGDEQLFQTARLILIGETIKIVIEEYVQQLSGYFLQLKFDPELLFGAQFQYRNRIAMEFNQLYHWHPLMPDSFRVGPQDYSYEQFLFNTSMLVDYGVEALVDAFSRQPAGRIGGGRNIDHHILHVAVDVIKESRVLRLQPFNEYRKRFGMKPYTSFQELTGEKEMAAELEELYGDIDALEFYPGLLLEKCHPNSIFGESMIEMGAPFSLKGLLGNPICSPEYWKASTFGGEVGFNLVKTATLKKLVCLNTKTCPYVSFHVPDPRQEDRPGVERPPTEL
Description: (§1) In order to screen for compounds that inhibited the COX-1 and COX-2 activities, a high throughput, in vitro assay was developed that utilized the inhibition of the peroxidase activity of both enzymes. […] Briefly, the composition or compound being examined was titrated against a fixed amount of COX-1 and COX-2 enzymes. A cleavable, peroxide chromophore was included in the assay to visualize the peroxidase activity of each enzyme in presence of arachidonic acid as a cofactor. Typically, assays were performed in a 96-well format. Each inhibitor, taken from a 10 mg/mL stock solution in 100% DMSO, was tested in triplicate at room temperature using the following range of concentrations: 0, 0.1, 1, 5, 10, 20, 50, 100, and 500 μg/mL. […] The components were mixed for 10 seconds on a rotating platform, followed by the addition of 20 μL of 2 mM N,N,N′N′-tetramethyl-p-phenylenediamine dihydrochloride (TMPD) and 20 μL of 1.1 mM arachidonic acid to initiate the reaction. The plate was shaken for 10 seconds and then incubated 5 minutes before reading the absorbance at 570 nm. The inhibitor concentration vs. % inhibition was plotted and the IC50 determined by taking the half-maximal point along the isotherm and intersecting the concentration on the X-axis. The IC50 was then normalized to the number of enzyme units in the assay.

recombinant ovine COX-2 = target: T2, recombinant ovine COX-2 (Ovis aries, UniProt P79208); assay: Inhibition of COX-2 peroxidase activity, TMPD assay (Example 3); type: biochemical; details: IC50 normalized to the number of enzyme units
T2 construct: purchased Cayman
T2 sequence (P79208 17-603): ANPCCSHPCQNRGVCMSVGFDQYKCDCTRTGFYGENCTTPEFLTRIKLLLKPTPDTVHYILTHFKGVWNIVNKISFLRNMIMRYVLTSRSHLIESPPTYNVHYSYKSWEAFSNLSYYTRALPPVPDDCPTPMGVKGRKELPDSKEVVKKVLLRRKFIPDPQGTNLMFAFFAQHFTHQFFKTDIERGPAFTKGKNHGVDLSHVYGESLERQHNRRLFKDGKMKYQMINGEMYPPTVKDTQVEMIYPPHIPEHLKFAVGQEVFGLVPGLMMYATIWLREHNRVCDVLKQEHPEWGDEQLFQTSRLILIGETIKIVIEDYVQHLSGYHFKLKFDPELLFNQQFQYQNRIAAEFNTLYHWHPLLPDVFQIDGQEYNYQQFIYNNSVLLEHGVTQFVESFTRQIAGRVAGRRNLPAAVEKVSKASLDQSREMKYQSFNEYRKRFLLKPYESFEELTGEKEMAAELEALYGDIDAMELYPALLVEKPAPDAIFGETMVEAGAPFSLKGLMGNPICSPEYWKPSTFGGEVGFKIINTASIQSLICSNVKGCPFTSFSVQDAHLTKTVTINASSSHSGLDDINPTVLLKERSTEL
Description: as §1

Compound: CC(C)Cc1ccc(C(C)C(=O)O)cc1 (stereo not drawn) [Ibuprofen, ibuprofen]
inhibition at 3 µg/mL [1]: 20%

Compound: Oc1cc(O)c2c(c1)OC(c1ccc(O)c(O)c1)C(O)C2 (stereo not drawn) [Catechin]
IC50 [2]: 415 µM
IC50 [3]: 40 µM
IC50 (COX-1; isolated from the bark of Ceiba pentandra, Noreen et al. (1998) J. Nat. Prod. 61:8-12): 80 µM

Compound: Oc1ccc([C@H]2Oc3cc(O)cc(O)c3C[C@H]2O)cc1 [Epiafzelechin]
anti-inflammatory activity against carrageenin-induced mouse paw edema [4]: demonstrated anti-inflammatory activity
IC50 (COX-1; isolated from Celastrus orbiculatus, Min et al. (1999)): 15 µM

Inhibition of COX-1 (recombinant ovine COX-1; purified Free-B-Ring flavonoids, concentration not given): 16%
Compound: COc1c(O)cc(O)c2c(=O)cc(-c3ccccc3)oc12 [Wogonin]

IC50 for COX-1 (recombinant ovine COX-1; peroxidase activity, IC50 normalized to the number of enzyme units): 0.44 μg/mL/unit of enzyme
IC50 for COX-2 (recombinant ovine COX-2): 0.28 μg/mL/unit
Compound: O=C(O)[C@H]1O[C@@H](Oc2cc3oc(-c4ccccc4)cc(=O)c3c(O)c2O)[C@H](O)[C@@H](O)[C@@H]1O [Baicalin]

Reference: patent US8790724B2, “Formulation of dual cycloxygenase (COX) and lipoxygenase (LOX) inhibitors for mammal skin care” (Unigen, Inc., priority 2003, dated 2014)
